Measured values reported in patent US11235001B2, “RUNX inhibitor” (KYOTO UNIVERSITY, priority 2016, dated 2022).
Like-named read-outs stand apart in the source and are kept apart here.

Experiments:
IL3, CSF2 and CSF2RB = experiment: qRT-PCR of RUNX1 target genes in MV4-11 cells; assay type: cell-based, human; settings: 5 μM, 6 hours
[1] = Acute toxicological testing in NOG mice; assay type: in vivo, mouse
Experimental: To check the pharmacological safety of the PI polyamide conjugates in vivo, acute toxicological testing of Chb-M′ in mice was first performed. NOD/Shi-scid,IL-2RγKO (NOG) mice were injected with Chb-M′ at various concentrations. Complete blood cell counts, blood biochemistry and body weight were measured (n=5).

MKN45 cells = experiment: Xenograft gastric cancer mouse model (MKN45); assay type: in vivo
ABC-1 = experiment: Cell viability, lung adenocarcinoma ABC-1; assay type: cell-based, human; settings: ABC-1 (EGFR wild-type p53-mutated), 48 hours
RERF-LC-MS = experiment: Cell viability, lung adenocarcinoma RERF-LC-MS; assay type: cell-based, human; settings: RERF-LC-MS (EGFR wild-type p53-mutated), 48 hours
p53, p21, PUMA, and BAX = experiment: Western blotting of apoptosis-related factors in lung adenocarcinoma cells; assay type: cell-based, human; settings: A549 cells and LU99A cells, 1 μM, 24 hours
Experimental: Cells were washed twice with ice cold phosphate-buffered saline (PBS) and harvested in protein lysis buffer [50 mM Tris (pH 7.4), 100 mM NaCl, 0.1 mM EDTA, 1 mM phenylmethylsulfonyl fluoride, 1 mM β-glycerophosphate, 2.5 mM sodium pyrophosphate, 1 mM Na3VO4, lx protease inhibitor (Roche) and PhosSTOP (Roche)]. Whole cell extracts were separated by SDS-polyacrylamide gel electrophoresis (SDS-PAGE) and electrotransferred onto polyvinylidene difluoride membranes. […] Blots were detected using Chemi-Lumi One Super (nacalai tesque, Inc.) and ChemiDoc™ XRS+ Imager (Bio-Rad Laboratories, Inc.), as recommended by the manufacturers. Protein levels were quantified with Image Lab Software (Bio-Rad Laboratories, Inc.).
To A549 cells and LU99A cells, 1 μM Chb-M′ was administered. After 24 hours, the expression levels of apoptosis-related factors (p53, p21, PUMA, and BAX) were evaluated by the Western blotting method (see the above-described “Immunoblotting”). […]

[2] = tested on: c-kit (KIT D816V mutation and V560G mutation); experiment: FACS of cell surface c-kit, HMC-1.2 mast cells; assay type: cell-based, human; settings: HMC-1.2 (mutated c-kit), 10 μM, 18-hour treatment; DMSO 113
Excerpt: Mast cells cause symptoms or diseases such as allergic reaction by receptor-mediated activation. In addition, c-kit signal transduction enhances release of chemical mediators from stimulated mast cells. The effect of the RUNX inhibitor on human mast cells was examined. As human mast cells, a LAD2 cell line (expressing wild-type c-kit) and an HMC-1.2 cell line (expressing mutated c-kit) were used. The HMC-1.2 cell line has KIT D816V mutation and V560G mutation. Wild-type c-kit is a SCF receptor and the cell proliferation is dependent on SCF. Accordingly, regarding the LAD2 cell line, 50 ng/ml of SCF was administered and experiments were performed as described below. The HMC-1.2 cell line has a mutation in c-kit and the cell proliferation is independent of SCF. Accordingly, regarding the HMC-1.2 cell line, SCF was not administered and experiments were performed as described below. As the RUNX inhibitor, Chb-M′ was used. […]
To the LAD2 cell line, 10 μM Chb-M′ was administered. After 3 hours and 18 hours, different antibodies were used for immunostaining of c-kit expressed on the cell surface, and the expression levels were analyzed by FACS (fluorescence-activated cell sorter). […] After 18 hours, different antibodies were used for immunostaining of c-kit expressed on the cell surface, and the expression levels were analyzed by FACS. […]

HMC-1.2 cell line = experiment: Cell proliferation of HMC-1.2 mast cells; assay type: cell-based, human
HL60 = settings: HL60, p53null; for IC50: 48 hours
THP-1 = settings: THP-1, p53mut(+); for IC50: 48 hours
DU-145 cells = settings: read-out: IC50 (μM) in DU-145 cells; DU-145 (androgen-independent), 48 hours
SU/SR cells = settings: read-out: IC50 value; SU/SR (imatinib-resistant), 48 hours
[3] = concomitant use of Chb-M′ and PRIMA-1, Chou-Talalay, CI<1 synergism
[4] = read-out: IC50 (μM) of Chb-M′ in concomitant use with PRIMA-1 (5 μM), with 5 μM PRIMA-1
[5] = read-out: IC50 (μM) of Chb-M′ single agent administration

CN(C)CCCNC(=O)c1cc(NC(=O)c2cc(NC(=O)c3cc(NC(=O)c4cc(NC(=O)CCCNC(=O)c5nc(NC(=O)c6nc(NC(=O)c7cc(NC(=O)c8nc(NC(=O)CCNC(=O)CCCc9ccc(N(CCCl)CCCl)cc9)cn8C)cn7C)cn6C)cn5C)cn4C)cn3C)cn2C)cn1C [Chb-M′]
Expressions of RUNX1 target genes (IL3, CSF2, and CSF2RB), mRNA (IL3, CSF2 and CSF2RB): effectively inhibited
10 mg/kg dose relative to the amount necessary to gain medicinal effect [1]: more than thirty times higher
Tolerability in vivo [1]: highly tolerable
Platelets counts ([1]; 10 mg/kg body weight injection): slight decrease
Tumor growth (tumor volume) (MKN45 cells; MKN45 xenograft, 320 μg/kg IV twice a week, to day 35): almost no change in tumor size
Size of gastric cancer (IVIS) (MKN45 cells; day 21 after transplantation, after total 4 administrations): decreased
Size of gastric cancer (IVIS) (MKN45 cells; day 35 after transplantation, after total 8 administrations): slightly grew
IC50 compared with the EGFR inhibitor (gefitinib) (ABC-1): lower IC50 values
IC50 compared with the EGFR inhibitor (gefitinib) (RERF-LC-MS): lower IC50 values
p53 and p21 and apoptotic factors PUMA and BAX (protein) (p53, p21, PUMA, and BAX): enhanced
MFI (mean fluorescent intensity) of surface c-kit [2]: 100
Cell proliferation of mast cells having mutated c-kit (HMC-1.2 cell line): suppression
CI (Fa = 0.5) (HL60; [3]): 1.10
IC50 (HL60; [4]): 11.7 µM
IC50 (HL60; [5]): 11.4 µM
CI (Fa = 0.5) (THP-1; [3]): 0.249
IC50 (THP-1; [4]): 0.5 µM
IC50 (THP-1; [5]): > 100 µM
IC50 (DU-145 cells): 1.82 µM
IC50 (SU/SR cells): 0.044 µM
